The target in one test is T1, B2 bradykinin receptor (Homo sapiens, UniProt P30411). Note: in other assays of this panel Not Active means under 50% inhibition at 10 µM.
T1 sequence (P30411 whole entry): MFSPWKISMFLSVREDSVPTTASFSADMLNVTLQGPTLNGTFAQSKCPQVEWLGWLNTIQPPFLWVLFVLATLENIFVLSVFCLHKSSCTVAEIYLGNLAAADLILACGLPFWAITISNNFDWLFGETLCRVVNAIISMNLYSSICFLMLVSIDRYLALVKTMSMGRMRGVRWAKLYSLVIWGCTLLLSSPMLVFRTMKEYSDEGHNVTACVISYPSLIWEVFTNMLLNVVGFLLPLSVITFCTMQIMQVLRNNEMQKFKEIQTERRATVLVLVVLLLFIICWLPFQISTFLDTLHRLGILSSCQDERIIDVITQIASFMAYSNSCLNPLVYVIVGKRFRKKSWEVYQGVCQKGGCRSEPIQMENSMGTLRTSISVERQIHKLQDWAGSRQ
Type of test: cell membranes, Membrane. Conditions: chem-1.

For test [1], the target named is T2, C-X-C chemokine receptor type 1 (Homo sapiens, UniProt P25024). Note: in other assays of this panel Not Active means under 50% inhibition at 10 µM.
T2 sequence (P25024 whole entry): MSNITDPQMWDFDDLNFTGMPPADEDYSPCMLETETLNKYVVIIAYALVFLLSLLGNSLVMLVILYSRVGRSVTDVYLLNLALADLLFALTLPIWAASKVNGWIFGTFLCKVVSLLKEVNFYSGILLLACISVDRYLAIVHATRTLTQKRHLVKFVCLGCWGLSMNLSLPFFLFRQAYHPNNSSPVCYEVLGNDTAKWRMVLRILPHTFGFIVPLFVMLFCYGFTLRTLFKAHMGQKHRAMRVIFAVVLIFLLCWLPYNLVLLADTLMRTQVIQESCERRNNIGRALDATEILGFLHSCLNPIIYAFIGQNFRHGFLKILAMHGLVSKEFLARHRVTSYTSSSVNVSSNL

The target in test [2] is T3, C-X-C chemokine receptor type 2 (Homo sapiens, UniProt P25025). Note: in other assays of this panel Not Active means under 50% inhibition at 10 µM.
T3 sequence (P25025 whole entry): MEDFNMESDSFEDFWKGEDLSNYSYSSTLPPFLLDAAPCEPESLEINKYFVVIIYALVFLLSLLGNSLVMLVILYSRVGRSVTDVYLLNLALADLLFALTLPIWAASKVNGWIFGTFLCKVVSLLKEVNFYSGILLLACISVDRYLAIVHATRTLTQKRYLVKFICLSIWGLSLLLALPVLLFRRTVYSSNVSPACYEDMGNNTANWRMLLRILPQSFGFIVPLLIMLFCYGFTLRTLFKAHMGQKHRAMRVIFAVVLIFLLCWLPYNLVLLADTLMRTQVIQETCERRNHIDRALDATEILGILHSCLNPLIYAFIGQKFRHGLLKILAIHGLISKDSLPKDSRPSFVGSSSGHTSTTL
The test is classed as cell membranes, CHO-K1, Membrane. Conditions: cho-k1.

A short description of test [3]: DRUGMATRIX: Interleukin IL-1 radioligand binding (ligand: [125I] interleukin 1beta). The test is classed as cell membranes, Membrane. Conditions: nih3t3; Not Active = under 50% inhibition at 10 µM.
The target of a further test is Melanocortin receptor 5 (Homo sapiens, UniProt P33032). The test is classed as cell membranes, HEK293, Membrane. The settings on record: hek293. Note: in other assays of this panel Not Active means under 50% inhibition at 10 µM.
The nature of test [4]: DRUGMATRIX: Phosphodiesterase PDE3 enzyme inhibition (substrate: [3H]cAMP + cAMP). Type of test: tissue-based, Homo sapiens. Conditions: platelet; Not Active = under 50% inhibition at 10 µM.
The target in another test is T4, Caspase-1 (Homo sapiens, UniProt P29466).
T4 sequence (P29466 whole entry): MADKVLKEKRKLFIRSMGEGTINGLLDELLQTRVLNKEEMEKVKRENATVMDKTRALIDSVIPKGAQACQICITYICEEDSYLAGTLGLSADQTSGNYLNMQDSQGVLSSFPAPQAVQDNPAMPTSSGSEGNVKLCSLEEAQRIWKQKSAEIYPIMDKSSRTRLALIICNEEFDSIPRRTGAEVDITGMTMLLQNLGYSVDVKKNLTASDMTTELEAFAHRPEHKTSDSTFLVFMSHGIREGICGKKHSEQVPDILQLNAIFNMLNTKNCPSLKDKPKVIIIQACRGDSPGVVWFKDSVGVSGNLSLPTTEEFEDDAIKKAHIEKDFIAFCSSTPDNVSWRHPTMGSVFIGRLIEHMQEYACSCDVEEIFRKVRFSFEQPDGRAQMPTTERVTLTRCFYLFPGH
Details: species or system Escherichia coli.

Sequence of Melanocortin receptor 5 (P33032 whole entry): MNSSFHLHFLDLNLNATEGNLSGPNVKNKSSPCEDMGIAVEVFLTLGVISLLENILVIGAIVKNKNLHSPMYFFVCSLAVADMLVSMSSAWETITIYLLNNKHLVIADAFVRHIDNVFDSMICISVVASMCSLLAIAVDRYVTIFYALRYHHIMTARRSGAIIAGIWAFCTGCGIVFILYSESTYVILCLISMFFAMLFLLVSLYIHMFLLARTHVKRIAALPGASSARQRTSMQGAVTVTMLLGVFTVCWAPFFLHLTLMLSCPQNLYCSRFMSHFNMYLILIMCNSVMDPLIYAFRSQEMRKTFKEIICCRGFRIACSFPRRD

On to `CC(N)C12CC3CC(CC(C3)C1)C2` (stereo not given) [RIMANTADINE], for which the IC50 result (against B2 bradykinin receptor; in test [1]; in test [2]; in test [3]; against Melanocortin receptor 5; in test [4]) was “Not Active” in each case. Also, the IC50 entry against Caspase-1 is reported as “Not Active”. Further, the Ki entry in test [3] and in test [4] was “Not Active” each time.

For `CC(Cl)(Cl)Cl` [TRICHLOROETHANE], the IC50 result (against B2 bradykinin receptor; in test [1]; in test [2]; in test [3]; against Melanocortin receptor 5; in test [4]) was “Not Active” in each case. Also, the IC50 entry on Caspase-1 is on record as “Not Active”. Also, the Ki entry in test [3] and in test [4] was “Not Active” throughout.

In the case of `O=C(O)c1cc(/N=N/c2ccc(S(=O)(=O)Nc3ccccn3)cc2)ccc1O` [SULFASALAZINE], the IC50 result (against B2 bradykinin receptor; in test [1]; in test [2]; in test [3]; at Melanocortin receptor 5; in test [4]) was “Not Active” throughout. The IC50 on Caspase-1 (read-out: IC50) was determined as 28.8 µM. The Ki result in test [3] and in test [4] was “Not Active” throughout.

As to `Cc1cccc(C)c1NC(=O)C(C)N` (stereo not given) [TOCAINIDE], the IC50 entry (against B2 bradykinin receptor; in test [1]; in test [2]; in test [3]; against Melanocortin receptor 5; in test [4]) was “Not Active” in each case. For the same compound, the IC50 result against Caspase-1 was “Not Active”. Moreover, the Ki entry in test [3] and in test [4] was “Not Active” throughout.

On to `CO[C@@]12[C@H](COC(N)=O)C3=C(C(=O)C(C)=C(N)C3=O)N1C[C@@H]1N[C@@H]12` [MITOMYCIN], for which the IC50 entry (against B2 bradykinin receptor; in test [1]; in test [2]; in test [3]; on Melanocortin receptor 5; in test [4]) was “Not Active” each time. In addition, the IC50 result at Caspase-1 is recorded as “Not Active”. Also, the Ki result in test [3] and in test [4] was “Not Active” in each case.

As to `Nc1nc(N)c2nc(-c3ccccc3)c(N)nc2n1`, the IC50 result (against B2 bradykinin receptor; in test [1]; in test [2]; in test [3]; on Melanocortin receptor 5; in test [4]) was “Not Active” throughout. Further, the half-inhibitory concentration (IC50) on Caspase-1 (read-out: IC50) was 3.66 µM. The Ki result in test [3] and in test [4] was “Not Active” each time.

Turning to `CC1=C(/C=C/C(C)=C/C=C/C(C)=C/C(=O)O)C(C)(C)CCC1` [TRETINOIN], the 50% inhibitory concentration (IC50) entry (at B2 bradykinin receptor; in test [1]; in test [2]; in test [3]; against Melanocortin receptor 5; in test [4]) was “Not Active” throughout. Moreover, the IC50 result against Caspase-1 is listed as “Not Active”. Moreover, the Ki result in test [3] and in test [4] was “Not Active” in each case.

`CC[C@@]1(O)C(=O)OCc2c1cc1n(c2=O)Cc2cc3c(CN(C)C)c(O)ccc3nc2-1` [TOPOTECAN]: the IC50 entry (on B2 bradykinin receptor; in test [1]; in test [2]; in test [3]; on Melanocortin receptor 5; in test [4]) was “Not Active” each time. Besides, on Caspase-1, the half-maximal inhibitory concentration (IC50) result is “Not Active”. Further, the Ki result in test [3] and in test [4] was “Not Active” each time.

With `Cc1ccc(Cl)c(Nc2ccccc2C(=O)O)c1Cl` [MECLOFENAMIC ACID], the concentration for half-maximal inhibition (IC50) entry (against B2 bradykinin receptor; in test [1]; in test [2]; in test [3]; against Melanocortin receptor 5; in test [4]) was “Not Active” each time. For the same compound, the IC50 entry at Caspase-1 is recorded as “Not Active”. Moreover, the Ki entry in test [3] and in test [4] was “Not Active” in each case.

As to `CCOc1cc(N)c(Cl)cc1C(=O)NCC1CN(Cc2ccc(F)cc2)CCO1` (stereo not given) [MOSAPRIDE], the IC50 entry (against B2 bradykinin receptor; in test [1]; in test [2]; in test [3]; at Melanocortin receptor 5; in test [4]) was “Not Active” throughout. Besides, the IC50 entry against Caspase-1 is “Not Active”. For the same compound, the Ki entry in test [3] and in test [4] was “Not Active” each time.

With `CN1C[C@H](CNC(=O)OCc2ccccc2)C[C@@H]2c3cccc4c3c(cn4C)C[C@H]21` [METERGOLINE], the IC50 entry (on B2 bradykinin receptor; in test [1]; in test [2]; in test [3]; on Melanocortin receptor 5; in test [4]) was “Not Active” each time. Further, the IC50 entry at Caspase-1 was “Not Active”. Moreover, the Ki entry in test [3] and in test [4] was “Not Active” each time.

In the case of `C1CCN2C[C@@H]3C[C@@H](CN4CCCC[C@@H]34)[C@H]2C1` [SPARTEINE], the IC50 entry (against B2 bradykinin receptor; in test [1]; in test [2]; in test [3]; against Melanocortin receptor 5; in test [4]) was “Not Active” each time. The IC50 result against Caspase-1 is “Not Active”. Further, the Ki entry in test [3] and in test [4] was “Not Active” throughout.

In the case of `CO[C@@H]1[C@@H](OC)[C@H](C)[C@@](O)(CC(=O)O)O[C@H]1[C@H](C)[C@H]1O[C@@]2(CC[C@@](C)([C@H]3CC[C@@](C)([C@@H]4O[C@@H]([C@H]5O[C@](C)(O)[C@H](C)C[C@@H]5C)C[C@@H]4O[C@@H]4C[C@H](OC)[C@@H](OC)[C@H](C)O4)O3)O2)C[C@H](O)[C@H]1C.N` [MADURAMICIN], the IC50 result (against B2 bradykinin receptor; in test [1]; in test [2]; in test [3]; against Melanocortin receptor 5; in test [4]) was “Not Active” in each case. In addition, on Caspase-1, the IC50 result is “Not Active”. Further, the Ki entry in test [3] and in test [4] was “Not Active” throughout.

On to `CN1C(=O)OC(C)(C)C1=O` [TRIMETHADIONE], for which the IC50 entry (against B2 bradykinin receptor; in test [1]; in test [2]; in test [3]; on Melanocortin receptor 5; in test [4]) was “Not Active” in each case. The IC50 result at Caspase-1 was “Not Active”. For the same compound, the Ki result in test [3] and in test [4] was “Not Active” each time.

On to `CC1(C)[C@H](C(=O)O)N2C(=O)C[C@H]2S1(=O)=O` [SULBACTAM], for which the IC50 entry (on B2 bradykinin receptor; in test [1]; in test [2]; in test [3]; on Melanocortin receptor 5; in test [4]) was “Not Active” in each case. The IC50 entry on Caspase-1 is reported as “Not Active”. The Ki result in test [3] and in test [4] was “Not Active” throughout.

In general, IC50 refers to the concentration needed to halve the response being measured.

Values taken from ChEMBL document CHEMBL1909046, “DrugMatrix in vitro pharmacology data”.
